By melting point is commonly meant the temperature, or range, at which the solid turns liquid. `COC(=O)c1cc(-c2ccc(-c3nccs3)cc2)n(-c2ccc(S(N)(=O)=O)cc2)n1` [Example 88, Methyl 1-(4-sulfamoylphenyl)-5-[4-(2-thiazolyl)phenyl]-1H-pyrazole-3-carboxylate] came in with a melting point of 204 to 206 °C.
